Like-named read-outs stand apart in the source and are kept apart here. Where only a bound is given, the exact number is not on record here.

In experiment [1] the test system is IL-6 cytokine output from THP-1s. The experiment is described as follows: THP-1 AlphaLISA IL-6 cytokine assay. As to conditions: Homo sapiens; PMA-differentiated THP-1 cells, LPS 24 hr then Nigericin 1 hour. The experiment is classed as cell-based, human. As for the experimental part:
Measuring Inhibitory Effects on IL-1β and IL-6 Cytokine Output from THP-1s
The cytokine inhibition profiles of compounds of formula (IW-1) were determined in a differentiated THP-1 cell assay. All assays were performed in RPMI-1640 growth medium (Gibco), supplemented with 10% fetal bovine serum (FBS; Gibco), 1% penicillin-streptomycin and 1% sodium pyruvate unless specified otherwise. The IL-1β and IL-6 cytokine inhibition assays were each run in a background of differentiated THP-1 cells as described below. All reagents described were from Sigma-Aldrich unless specified otherwise. Compounds were prepared as 10 mM DMSO stocks.
THP-1 cells were expanded as a suspension up to 80% confluence in appropriate growth medium. Cells were harvested, suspended, and treated with an appropriate concentration of phorbol 12-myristate 13-acetate (PMA) over a 72 hr period (37° C./5% CO2).
Following 72 hrs of THP-1 cell incubation, cellular medium was removed and replaced with fresh growth media containing 1% of FBS. Working concentrations of compounds were prepared separately in 10% FBS treated growth medium and pre-incubated with the cells for 30 minutes (37° C./5% CO2). Following the 30 minute compound pre-incubation, THP-1s were treated with an appropriate concentration of LPS and the THP-1s were subsequently incubated for a 24 hr period (37° C./5% CO2). An appropriate final concentration of Nigericin was then dispensed into the THP-1 plates and incubated for 1 hour (37° C./5% CO2) before THP-1 supernatants were harvested and collected in separate polypropylene 96-well holding plates.
Reagents from each of the IL-1β and IL-6 commercial kits (Perkin Elmer) were prepared and run according to the manufacturer's instructions. Subsequently, fluorescence signal detection in a microplate reader was measured (EnVision® Multilabel Reader, Perkin Elmer).
Percentage inhibition was calculated per cytokine by normalising the sample data to the high and low controls used within each plate (+/−LPS respectively). Percentage inhibition was then plotted against compound concentration and the 50% inhibitory concentration (IC50) was determined from the resultant concentration-response curve.
Background: Alpha assays give light when donor and acceptor beads are brought close together.

Experiment [2] concerns IL-1β cytokine output from THP-1s. The experiment can be described thus: THP-1 AlphaLISA IL-1β cytokine assay. The experiment is classed as cell-based, human. The following applies: read-out: IL-1β (IC50). The essentials: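 Percent inhibition, normalised to plus- and minus-LPS controls, was plotted against concentration to derive IC50. Differentiated THP-1 cells received compound 30 min ahead of LPS (24 h) and a 1 h nigericin pulse; AlphaLISA quantified supernatant cytokine.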

In experiment [3] the test system is NRF2. The experiment is described as follows: NRF2 +/-GSH activation assay (DiscoverX PathHunter NRF2 translocation kit, U2OS cells). The experiment is classed as cell-based. As to conditions: for EC50: read-out: NRF2 activation EC50; for Emax: read-out: NRF2 activation Emax. Here is the method:
Measuring Compound Activation Effects on the Anti-Inflammatory Transcription Factor NRF2 in DiscoverX PathHunter NRF2 Translocation Kit
Potency and efficacy of compounds of formula (IW-1) against the target of interest to activate NRF2 (nuclear factor erythroid 2-related factor 2) were determined using the PathHunter NRF2 translocation kit (DiscoverX). The NRF2 translocation assay was run using an engineered recombinant cell line, utilising enzyme fragment complementation to determine activation of the Keap1-NRF2 protein complex and subsequent translocation of NRF2 into the nucleus. Enzyme activity was quantified using a chemiluminescent substrate consumed following the formation of a functional enzyme upon PK-tagged NRF2 translocation into the nucleus.
The assay was run under either +/−GSH (glutathione) conditions to determine the attenuating activities of GSH against target compounds.
Additionally, a defined concentration of dimethyl fumarate was used as the ‘High’ control to normalise test compound activation responses to.
U2OS PathHunter eXpress cells were thawed from frozen prior to plating. Following plating, U2OS cells were incubated for 24 hrs (37° C./5% CO2) in commercial kit provided cell medium.
Following 24 hrs of U2OS incubation, cells were directly treated with an appropriate final concentration of compound, for −GSH conditions, or for +GSH conditions, an intermediate plate containing 6× working concentrations of compound stocks was prepared in a 6 mM working concentration of GSH solution (solubilised in sterile PBS). Following a 30 minute compound-GSH pre-incubation (37° C./5% CO2) for +GSH treatment, plated U2OS cells were incubated with an appropriate final concentration of compound and GSH.
Following compound (+/−GSH) treatment, the U2OS plates were incubated for a further 6 hours (37° C./5% CO2) before detection reagent from the PathHunter NRF2 commercial kit was prepared and added to test plates according to the manufacturer's instructions. Subsequently, the luminescence signal detection in a microplate reader was measured (PHERAstar®, BMG Labtech).
Percentage activation was calculated by normalising the sample data to the high and low controls used within each plate (+/−DMF). Percentage activation/response was then plotted against compound concentration and the 50% activation concentration (EC50) was determined from the plotted concentration-response curve.

The mark [4] stands for this setting: Homo sapiens, THP-1, PMA-differentiated THP-1 cells, LPS 24 hr then Nigericin 1 hour.
Where [5] appears, read: Homo sapiens, U2OS, normalised to dimethyl fumarate 'High' control, GSH condition not stated in Table 5.
The mark [6] stands for this setting: Homo sapiens, U2OS PathHunter cells, 6 hours, GSH condition not stated in Table 5.

As for `C=C(CC(=O)OC)C(=O)OC1COC1` [Example 15, 4-methyl 1-(oxetan-3-yl) 2-methylenesuccinate], the results for the IC50 in experiment [1] and in experiment [2] (setting [4]) were 8.9 µM and 15.4 µM, respectively.

`C=C(CC(=O)OC(C)C)C(=O)OCCS(C)(=O)=O` [Example 22, 4-isopropyl 1-(2-(methylsulfonyl)ethyl) 2-methylenesuccinate]: the figures for the IC50 in experiment [1] and in experiment [2] (setting [4]) were 7 µM and 15.4 µM, respectively.

For the compound `C=C(CC(=O)OCCCCCCCC)C(=O)O[C@H]1CCOC1` [Example 23, (S)-4-octyl 1-(tetrahydrofuran-3-yl) 2-methylenesuccinate], the half-inhibitory concentration (IC50) – broadly, the concentration at which inhibition is half-maximal – in experiment [1] amounted to 4.5 µM; in experiment [2] (setting [4]) it was 8.2 µM.

Turning to `C=C(CC(=O)OCCCCCCCC)C(=O)O[C@@H]1CCOC1` [Example 24, (R)-4-octyl 1-(tetrahydrofuran-3-yl) 2-methylenesuccinate], the IC50 is 4.2 µM in experiment [1] and 15 µM in experiment [2] (setting [4]).

For the compound `C=C(CC(=O)OC1CCCCCCC1)C(=O)OCCS(C)(=O)=O` [Example 25, 4-cyclooctyl 1-(2-(methylsulfonyl)ethyl) 2-methylenesuccinate], the half-maximal inhibitory concentration (IC50) in experiment [1] and in experiment [2] (setting [4]) was 1.9 µM in each case.

Take `C=C(CC(=O)OCCCCCCCC)C(=O)OC(C)CC#N` (centres unmarked) [Example 27, 1-(1-cyanopropan-2-yl) 4-octyl 2-methylenesuccinate]: the 50% inhibitory concentration (IC50) in experiment [1] was 6.4 µM; in experiment [2] (setting [4]), 12.2 µM.

`C=C(CC(=O)OCCCCCCCC)C(=O)OC1CCN(S(C)(=O)=O)CC1` [Example 28, 1-(1-(methylsulfonyl)piperidin-4-yl) 4-octyl 2-methylenesuccinate]: the IC50 was 2.2 µM in experiment [1] and 5.2 µM in experiment [2] (setting [4]).

As for `C=C(CC(=O)OCCCCCCCC)C(=O)OCCOC` [Example 29, 1-(2-methoxyethyl) 4-octyl 2-methylenesuccinate], the 50% inhibitory concentration (IC50) in experiment [1] is 7.9 µM; in experiment [2] (setting [4]), 18.4 µM.

On to `C=C(CC(=O)OCCCCCCCC)C(=O)OCC(C)(C)C#N` [Example 30, 1-(2-cyano-2-methylpropyl) 4-octyl 2-methylenesuccinate], for which the 50% inhibitory concentration (IC50) in experiment [1] came to 4.8 µM; in experiment [2] (setting [4]), 11.3 µM.

On to `C=C(CC(=O)OCCCCCCCC)C(=O)OC(C)COC` (centres unmarked) [Example 31, 1-(1-methoxypropan-2-yl) 4-octyl 2-methylenesuccinate], for which the IC50 in experiment [1] was 15.5 µM; in experiment [2] (setting [4]) it was 12.9 µM.

Take `C=C(CC(=O)OCCCCCCCC)C(=O)OCC1(C#N)CC1` [Example 32, 1-((1-cyanocyclopropyl)methyl) 4-octyl 2-methylenesuccinate]: the figures for the half-inhibitory concentration (IC50) in experiment [1] and in experiment [2] (setting [4]) were 9.5 µM and 18.9 µM, respectively.

In the case of `C=C(CC(=O)OCCCCCCCC)C(=O)OCC(C)OC` (centres unmarked) [Example 33, 1-(2-methoxypropyl) 4-octyl 2-methylenesuccinate], the results for the IC50 in experiment [1] and in experiment [2] (setting [4]) were 11.7 µM and 14.1 µM, respectively.

`C=C(CC(=O)OCCCCCCCC)C(=O)OCC(C)(C)OC` [Example 34, 1-(2-methoxy-2-methylpropyl) 4-octyl 2-methylenesuccinate]: the IC50 in experiment [1] was 16.1 µM; in experiment [2] (setting [4]), 31.8 µM.

For the compound `C=C(CC(=O)OCCCCCCCC)C(=O)OCCN1CCOCC1` [Example 35, 1-(2-morpholinoethyl) 4-octyl 2-methylenesuccinate], the IC50 turned out to be 3.7 µM in experiment [1] and 6.7 µM in experiment [2] (setting [4]).

For `C=C(CC(=O)OCCOCCOCC)C(=O)OCCS(C)(=O)=O` [Example 36, 4-(2-(2-ethoxyethoxy)ethyl) 1-(2-(methylsulfonyl)ethyl) 2-methylenesuccinate], the IC50 was 8.9 µM in experiment [1] and 20.5 µM in experiment [2] (setting [4]).

As for `C=C(CC(=O)OCCCCCCCC)C(=O)OC(C)OC(C)=O` (centres unmarked) [Example 46, 1-(1-acetoxyethyl) 4-octyl 2-methylenesuccinate], the figures for the concentration for half-maximal inhibition (IC50) in experiment [1] and in experiment [2] (setting [4]) were 3 µM and 6.7 µM, respectively.

For `C=C(CC(=O)O[C@H]1[C@@H]2CC[C@H]1CN(S(C)(=O)=O)C2)C(=O)O[C@H]1[C@@H]2CC[C@H]1CN(S(C)(=O)=O)C2` [Example 156, bis((endo)-3-(methylsulfonyl)-3-azabicyclo[3.2.1]octan-8-yl) 2-methylenesuccinate], the EC50 (in general, the midpoint of the concentration-response curve) in experiment [3] (U2OS PathHunter cells, 6 hours, GSH condition not stated in Table 5) was 47.9 µM. Moreover, the “NRF2 activation Emax” value in experiment [3] (normalised to dimethyl fumarate 'High' control, GSH condition not stated in Table 5) worked out at 63%. In addition, the IC50 in experiment [2] was 27.9 µM.

`C=C(CC(=O)OC1CC2(COC2)C1)C(=O)O[C@H]1[C@@H]2CC[C@H]1CN(S(C)(=O)=O)C2` [Example 157, 1-((endo)-3-(methylsulfonyl)-3-azabicyclo[3.2.1]octan-8-yl) 4-(2-oxaspiro[3.3]heptan-6-yl) 2-methylenesuccinate]: the Emax (commonly the size of the effect at its maximum, as opposed to the concentration needed) in experiment [3] (setting [5]) is 29%. Besides, the EC50 in experiment [3] (setting [6]) is more than 100 µM. For the same compound, the IC50 in experiment [2] (setting [4]) amounted to 41.6 µM.

Consider `C=C(CC(=O)OC1CCCOCC1)C(=O)O[C@H]1[C@@H]2CC[C@H]1CN(S(C)(=O)=O)C2` (stereo partly drawn) [Example 158, 1-((endo)-3-(methylsulfonyl)-3-azabicyclo[3.2.1]octan-8-yl) 4-(oxepan-4-yl) 2-methylenesuccinate], for which the Emax in experiment [3] (setting [5]) was 43%. For the same compound, the EC50 in experiment [3] (setting [6]) was 72.8 µM. Moreover, the IC50 in experiment [2] (setting [4]) was 24.2 µM.

As for `C=C(CC(=O)OC(C)COCCCC)C(=O)O[C@H]1[C@@H]2CC[C@H]1CN(S(C)(=O)=O)C2` (stereo partly drawn) [Example 159, 4-(1-butoxypropan-2-yl) 1-((endo)-3-(methylsulfonyl)-3-azabicyclo[3.2.1]octan-8-yl) 2-methylenesuccinate], the Emax in experiment [3] (setting [5]) stood at 86%. In experiment [3] (setting [6]), the EC50 was 13.8 µM. For the same compound, the IC50 in experiment [2] (setting [4]) came out at 31.9 µM.

As to `C=C(CC(=O)OC1CC2(CCC2)C1)C(=O)OCC(O)(O)C(F)(F)F` [Example 160, 4-spiro[3.3]heptan-2-yl 1-(3,3,3-trifluoro-2,2-dihydroxypropyl) 2-methylenesuccinate Hydrate], in experiment [3] (Homo sapiens, U2OS, 6 h), the EC50 came to 72.6 µM. For the same compound, in experiment [3] (Homo sapiens, U2OS), the Emax was found to be 7%. In addition, in experiment [2] (Homo sapiens, PMA-differentiated THP-1 cells, LPS 24 hr then Nigericin 1 hour), the half-maximal inhibitory concentration (IC50) came to 8.1 µM.

As for `C=C(CC(=O)OC1CCCCCC1)C(=O)OCc1nn[nH]n1` [Example 162, 1-(2H-tetrazol-5-yl)methyl 4-cycloheptyl 2-methylenesuccinate], the maximal response (Emax) in experiment [3] (setting [5]) came out at 164%. In experiment [3] (setting [6]), the EC50 is 31.3 µM. For the same compound, the concentration for half-maximal inhibition (IC50) in experiment [2] (setting [4]) was determined as 14.7 µM.

Consider `C=C(CC(=O)OC1CC2(CCC2)C1)C(=O)OCc1nn[nH]n1` [Example 163, 1-(2H-tetrazol-5-yl)methyl 4-spiro[3.3]heptan-2-yl 2-methylenesuccinate], for which the Emax in experiment [3] (setting [5]) was 0%. For the same compound, the EC50 in experiment [3] (setting [6]) is more than 100 µM. The IC50 in experiment [2] (setting [4]) turned out to be 23.9 µM.

As for `C=C(C(=O)OCC(=O)O)C(O)C(=O)OC1CCCCCCC1` (centres unmarked) [Example 189, 2-((4-(cyclooctyloxy)-3-hydroxy-2-methylene-4-oxobutanoyl)oxy)acetic acid], the maximal effect (Emax) in experiment [3] (setting [5]) came out at 137%. In addition, the EC50 in experiment [3] (setting [6]) was 18 µM. For the same compound, the 50% inhibitory concentration (IC50) in experiment [2] (setting [4]) is 57.9 µM.

These data come from patent US12390437B2, “Itaconic acid derivatives and uses thereof intreating an inflammatory disease or a disease associated with an undesirable immune response” (Sitryx Therapeutics Limited, priority 2019, dated 2025).
